pIC50: −log10 of the molar value.
System: Ninety four (94) cell lines and PBMC
Experiment: Cell viability assay, SRB staining, 94 cell lines and PBMC (Example 7, Experiment 2)
Format: cell-based
Experimental: Ninety four (94) cell lines were seeded at a density varying from 500 to 7000 cells/well depending on their growth characteristics. PBMC were seeded at the density 50,000-100,000 cells/well. Cells were incubated for 48 h prior to compound treatment. Compound 1 and DON were evaluated at a concertation range of 1 nM up to 100 μM. Compound 1 dilutions in DMSO and DON dilutions in PBS were performed in 96-well 0.5 mL plates (Greiner Bio-One, Germany). Compounds were then diluted 1:100 in RPMI medium. […] of cells were treated by mixing with 10 μL of the compound-containing media (resulting in a final DMSO concentration of 0.1%). The cells were allowed to grow at 37° C. for 120 h. Cells were fixed to the surface by addition of 10% TCA (for adherent growing cells) or 50% TCA (for semi-adherent growing cells or cells growing in suspension). After an hour of incubation at 4° C., plates were washed twice with 400 μL of deionized water and dried. Cells were then stained with 100 μL of 0.04% wt/v SRB. The plates were incubated at room temperature for at least 30 min and washed six times with 1% acetic acid to remove unbound stain. The plates were left to dry at room temperature and bound SRB was solubilized with 100 μL of 10 mM Tris base. Optical density was measured at 492, 520 and 560 nm using a Deelux-LED96 plate reader (Deelux Labortechnik GmbH, Germany).
Cell lines were purchased directly from the ATCC, NCI, CLS, and DSMZ cell line collections. A master bank and working aliquots were prepared. Cells used for the study had undergone less than 20 passages. To rule out potential contamination or wrong assignment, all cell lines were tested by STR analysis. Absence of mycoplasma contamination was confirmed for all cell lines used in the studies.
The cell lines were grown in the media recommended by the suppliers in the presence of 100 U/mL penicillin and 100 μg/mL streptomycin supplied with 10% FCS (PAA, Germany). RPMI 1640, DMEM, and MEM Earle's medium were from PAA (Coelbe, Germany), supplements 2 mM L-glutamine, 1 mM Na-pyruvate and 1% NEAA were from PAA (Coelbe, Germany), 2.5% horse serum, hydrocortisone, transferin, beta-estradiol, selenite and 1 U/mL insulin from Sigma-Aldrich (Munich, Germany). RPMI medium was used for culturing the following cell lines: 5637, 22RV1, 7860, A2780, A431, A549, ACHN, ASPC1, BT20, BXPC3, CAKI1, CLS439, COLO205, COLO678, DLD1, DU145, EFO21, EJ28, HCT15, HS578T, IGROV1, JAR, LOVO, MCF7, MDA MB231, MDA MB435, MDA MB436, MDA MB468, MHHES1, MT3, NCI H292, NCI H358M, NCI H460, NCIH82, OVCAR3, OVCAR4, PANC 1005 (addition of insulin), PBMC, PC3, RDES, SF268, SF295, SKBR3, SK MEL28, SKMEL5, SKOV3, SW620, U2OS, UMUC3, and U031.
DMEM medium was used to culture A204, A375, A673, C33A, CASKI, HCT116, HEPG2, HS729, HT29, J82, MG63, MIAPACA2 (addition of horse serum), PANC1, PLCPRF5, RD, SAOS2, SKLMS1, SKNAS, SNB75, T24, and TE671.
MEM Earle's medium was used for CACO2, CALU6, HEK293, HELA, HT1080, IMR90, JEG3, JIMT1, SKHEP1, SKNSH, and U87MG. Cell seeding conditions were optimized for each cell line. The cell seeding density varied from 500 to 7000 cells/well depending on their growth characteristics. Peripheral blood mononuclear cells (PBMC) were freshly isolated from whole blood of an anonymous donor through density gradient centrifugation using Ficoll solution (d=1.077). In short, blood was diluted 1:1 with PBS and carefully placed on the Ficoll. After centrifugation 1000×g for 15 min (braking rate 0), the ring containing mainly leucocytes was collected in PBS followed by three times washing with PBS to reduce the platelets. PBMC were seeded at the density 50,000-100,000 cells/well. Cells were grown in 5% CO2 atmosphere in a NB-203XXL incubator (N-BIOTEK Inc., Korea).
Ninety-four cell lines were tested in parallel. Cell growth and treatment were performed in 96 well microtitre plates CELLSTAR® (Greiner Bio-One, Germany). […]

[1] = Homo sapiens, MDA-MB-468, MDAMB468, breast
[2] = Homo sapiens, MG-63, MG63, bone
[3] = Homo sapiens, MHH-ES-1, MHHES1, bone
[4] = Homo sapiens, MIA PaCa-2, MIAPACA2, pancreas
[5] = Homo sapiens, MINO, hematological
[6] = Homo sapiens, MV4-11, MV4-11, hematological
[7] = Homo sapiens, NCI-H460, NCIH460, lung
[8] = Homo sapiens, OVCAR-3, OVCAR3, ovary
[9] = Homo sapiens, OVCAR-4, OVCAR4, ovary
[10] = Homo sapiens, PANC-1, PANC1, pancreas
[11] = Homo sapiens, PLC-PRF-5, PLCPRF5, liver
[12] = Homo sapiens, Panc1005, PANC1005, pancreas
[13] = Homo sapiens, SAOS-2, SAOS2, bone
[14] = Homo sapiens, SF-268, SF268, brain
[15] = Homo sapiens, SF-295, SF295, brain
[16] = Homo sapiens, SK-BR-3, SKBR3, breast
[17] = Homo sapiens, SK-HEP1, SKHEP1, liver
[18] = Homo sapiens, SK-LMS-1, SKLMS1, uterus
[19] = Homo sapiens, SK-MEL-5, SKMEL5, skin
[20] = Homo sapiens, SK-MEL-28, SKMEL28, skin
[21] = Homo sapiens, SK-N-AS, SKNAS, brain
[22] = Homo sapiens, SK-N-SH, SKNSH, brain
[23] = Homo sapiens, SK-OV-3, SKOV3, ovary
[24] = Homo sapiens, SNB-75, SNB75, brain
[25] = Homo sapiens, SU-DHL-6, SU-DHL-6, hematological
[26] = Homo sapiens, SW-620, SW620, colon
[27] = Homo sapiens, TE-671, TE671, muscle
[28] = Homo sapiens, THP-1, THP-1, hematological
[29] = Homo sapiens, U-87 MG, U87MG, brain
[30] = Homo sapiens, UMUC3, UMUC3, bladder
[31] = Homo sapiens, UO-31, UO31, kidney
[32] = Homo sapiens, WSU-NHL, hematological

CC(=O)N[C@@H](Cc1c[nH]c2ccccc12)C(=O)N[C@@H](CCC(=O)C=[N+]=[N-])C(=O)OC(C)C [Compound 1, Isopropyl (S)-2-((S)-2-acetamido-3-(1H-indol-3-yl)propanamido)-6-diazo-5-oxohexanoate]
GI50 [1]: 0.531 µM
pIC50 [1]: 6.10
GI50 [2]: 4.6 µM
pIC50 [2]: 5.27
GI50 [3]: 6.19 µM
pIC50 [3]: 5.20
GI50 [4]: 3.29 µM
pIC50 [4]: 5.45
GI50 [5]: 0.61 µM
pIC50 [5]: 6.10
GI50 [6]: 0.976 µM
pIC50 [6]: 5.99
GI50 (Homo sapiens, NCI-H292, NCIH292, lung): 14.5 µM
GI50 [7]: 4.74 µM
pIC50 [7]: 5.30
GI50 [8]: 1.65 µM
pIC50 [8]: 5.39
GI50 [9]: 0.812 µM
pIC50 [9]: 5.78
GI50 [10]: 7.98 µM
pIC50 [10]: 5.07
GI50 [11]: 6.15 µM
pIC50 [11]: 5.13
GI50 [12]: 14.8 µM
pIC50 [12]: 4.54
GI50 (Homo sapiens, Ramos, hematological): 6.63 µM
GI50 [13]: 2.8 µM
pIC50 [13]: 4.68
GI50 [14]: 7.37 µM
pIC50 [14]: 5.02
GI50 [15]: 9.73 µM
pIC50 [15]: 4.96
GI50 [16]: 2.65 µM
pIC50 [16]: 5.41
GI50 [17]: 3.93 µM
pIC50 [17]: 5.29
GI50 [18]: 1.34 µM
pIC50 [18]: 5.67
GI50 [19]: 2.05 µM
pIC50 [19]: 5.54
GI50 [20]: 1.23 µM
pIC50 [20]: 5.79
GI50 [21]: 7.62 µM
pIC50 [21]: 4.73
GI50 [22]: 8.18 µM
pIC50 [22]: 5.04
GI50 [23]: 1.26 µM
pIC50 [23]: 5.42
GI50 [24]: 18.4 µM
pIC50 [24]: 4.40
GI50 (Homo sapiens, SU-DHL10, SU-DHL-10, hematological): 4.18 µM
GI50 [25]: 0.971 µM
pIC50 [25]: 5.95
GI50 [26]: 7.96 µM
pIC50 [26]: 5.07
GI50 [27]: 5.44 µM
pIC50 [27]: 5.22
GI50 [28]: 1.99 µM
pIC50 [28]: 5.65
GI50 (Homo sapiens, U2OS, bone): 10 µM
pIC50 (Homo sapiens, U2OS, bone): 4.89
GI50 [29]: 2.38 µM
pIC50 [29]: 5.39
GI50 [30]: 2.32 µM
pIC50 [30]: 5.56
GI50 [31]: 17.7 µM
pIC50 [31]: 4.35
GI50 [32]: 1.16 µM
pIC50 [32]: 5.82
pIC50 (J82, bladder): 4.80
pIC50 (JAR, placenta): 5.62
pIC50 (MT3, breast): 5.84
GI50 (NCI-H358M, NCIH358M, lung): 3.31 µM
pIC50 (NCI-H358M, NCIH358M, lung): 5.05
GI50 (PBMC, 5637, bladder): 2.15 µM
GI50 (PBMC, CLS439, bladder): 7.57 µM
GI50 (PBMC, HS729, muscle): 10.1 µM
GI50 (PBMC, J82, bladder): 14.2 µM
GI50 (PBMC, JAR, placenta): 2.23 µM
GI50 (PBMC, MT3, breast): 1.1 µM
GI50 (PBMC, PC3, prostate): 11.5 µM
GI50 (PBMC, RD, muscle): 4.05 µM
GI50 (PBMC, T24, bladder): 4.71 µM
pIC50 (PC3, prostate): 4.75
pIC50 (RD, muscle): 5.26
GI50 (RD-ES, RDES, bone): 3.95 µM
pIC50 (RD-ES, RDES, bone): 5.26
pIC50 (T24, bladder): 5.31

From US20220117938A1, “COMBINATON THERAPY WITH A DON PRODRUG AND AN IMMUNE CHECKPOINT INHIBITOR” (DRACEN PHARMACEUTICALS, INC., priority 2019, published 2022)
